In test [1] the test system is Escherichia coli. Briefly: Antimicrobial activity against Escherichia coli U93 isolate by disk diffusion test. (In agar diffusion tests the substance spreads into inoculated agar from a disc or well.)
Test [2] concerns Escherichia coli. The experiment in a line: Antimicrobial activity against Escherichia coli U21 isolate by disk diffusion test.

Where only a bound is given, the exact number is not on record here.

In general, MIC refers to the lowest concentration found to suppress growth. Higher therefore signals a need for much substance. `COc1cc(Cc2cnc(N)nc2N)cc(OC)c1OC` [TRIMETHOPRIM]: the MIC in the test on Escherichia coli [1] and with Escherichia coli [2] was more than 32 µg/mL in each case.

Source of the values: ChEMBL document CHEMBL1143849, “Two new dfr genes in trimethoprim-resistant integron-negative Escherichia coli isolates” (2007).
